Experimental data reported in patent US11827628B2, “Compositions and methods for inhibition of the JAK pathway” (Rigel Pharmaceuticals, Inc., priority 2005, dated 2023).
pIC50: −log10 of the molar value. Where a name gives a salt, the structure may show the parent alone.

Experiments:
[1] = system: IL-4 stimulated expression of CD23 in human Ramos B cells (JAK-1 and JAK-3); assay: Assay for Ramos B-Cell Line Stimulated with IL-4 (CD23 upregulation, FACS); assay type: cell-based; conditions: Homo sapiens, Ramos, Ramos B cells stimulated with IL-4, CD23 expression by FACS; read-out: IC50, Example 41
Method in brief: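 Human Ramos B cells in RPMI with 5% serum were pre-incubated with compound or DMSO for 1 h at 37 °C, then stimulated with IL-4 at a final 50 units/mL for 20-24 h. CD23 upregulation was measured by anti-CD23-PE staining and flow cytometry, and IC50 values were calculated.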

[2] = system: up-regulation of ICAM-1 (CD54) by IFNγ in U937 human monocytic cells; assay: U937 IFNγ ICAM1 FACS Assay; assay type: cell-based; conditions: Homo sapiens, U-937, U937 cells stimulated with IFNγ, ICAM-1 expression by FACS; read-out: IC50, Example 44
Method in brief: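 U937 cells in 10% FCS RPMI were preincubated 30 min at 37 °C with an 8-point, 3-fold compound dilution series in duplicate, then stimulated with IFNγ for 18–24 h. Surface ICAM-1 was stained with APC anti-ICAM-1 and read by flow cytometry as geometric mean on live-gated cells. EC50 was derived.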

C#CCOc1ccc(Nc2nc(Nc3ccc(C)c(S(=O)(=O)NC)c3)ncc2F)cc1 [VI-68, 5-Fluoro-N2-(4-methyl-3-methylaminosulfonylphenyl)-N4-[4-(prop-2-ynyloxy)phenyl]-2,4-pyrimidinediamine]
pIC50 [1]: 6.99 | pIC50 [2]: 5.74

Cc1cnc(Nc2cccc(S(N)(=O)=O)c2)nc1Nc1ccc2c(c1)NC(=O)CO2 [VII-32, N2-(3-Aminosulphonylphenyl)-5-methyl-N4-(3-oxo-benz[1,4]oxazin-6-yl)-2,4-pyrimidinediamine]
pIC50 [1]: 6.97 | pIC50 [2]: 5.69

Cc1ccc(Nc2ncc(F)c(Nc3ccc(C)c(S(N)(=O)=O)c3)n2)cc1S(N)(=O)=O [VI-114, N2,N4-Bis-(3-aminosulfonyl-4-methylphenyl)-5-fluoro-2,4-pyrimidinediamine]
pIC50 [1]: 6.68 | pIC50 [2]: 4.48

COc1ccc(Nc2nc(Nc3cccc(S(N)(=O)=O)c3)ncc2F)cn1 [VII-6, N2-(3-Aminosulfonylphenyl)-5-fluoro-N4-(2-methoxypyrid-5-yl)-2,4-pyrimidinediamine]
pIC50 [1]: 6.99 | pIC50 [2]: 5.44

NS(=O)(=O)c1cc(Nc2ncc(F)c(Nc3ccc(O)cc3)n2)ccc1F [VI-100, N2-(3-Aminosulfonyl-4-fluorophenyl)-5-fluoro-N4-(4-hydroxyphenyl)-2,4-pyrimidinediamine]
pIC50 [1]: 6.49 | pIC50 [2]: 5.31

N#CCN1C(=O)COc2ccc(Nc3nc(Nc4ccc(S(N)(=O)=O)cc4)ncc3F)cc21 [Compound V-6, N2-(4-Aminosulphonylphenyl)-5-fluoro-N4-(3-oxo-4-cyanomethyl-benz[1,4]oxazin-6-yl]-2,4-pyrimidinediamine]
pIC50 [1]: 7.66 | pIC50 [2]: 6.24

Cc1ccc(Nc2ncc(F)c(Nc3ccc(Cl)c(Cl)c3)n2)cc1S(N)(=O)=O [VI-6, N2-(3-Aminosulfonyl-4-methylphenyl)-N4-(3,4-dichlorophenyl)-5-fluoro-2,4-pyrimidinediamine]
pIC50 [1]: 7.43 | pIC50 [2]: 5.11

C#CCOc1ccc(Nc2nc(Nc3ccc(C(C)C)c(S(N)(=O)=O)c3)ncc2F)cc1 [VI-63, N2-[3-Aminosulfonyl-4-(2-propyl)phenyl]-5-fluoro-N4-[4-(prop-2-ynyloxy)phenyl]-2,4-pyrimidinediamine]
pIC50 [1]: 6.80 | pIC50 [2]: 5.76

N#CCc1c[nH]c2cc(Nc3nc(Nc4cccc(S(N)(=O)=O)c4)ncc3F)ccc12 [IX-12, N2-(3-Aminosulfonylphenyl)-N4-(3-cyanomethyl-1H-indol-6-yl)-5-fluoro-2,4-pyrimidinediamine]
pIC50 [1]: 7.01 | pIC50 [2]: 5.46

Cc1ccc(Nc2ncc(F)c(Nc3ccc4ncccc4c3)n2)cc1S(N)(=O)=O [VII-69, N2-(3-Aminosulfonyl-4-methylphenyl)-5-fluoro-N4-(quinolin-6-yl)-2,4-pyrimidinediamine]
pIC50 [1]: 7.12 | pIC50 [2]: 6.00

COc1cc(Nc2nc(Nc3ccc(C)c(S(N)(=O)=O)c3)ncc2F)ccc1Cl [VI-5, N2-(3-Aminosulfonyl-4-methylphenyl)-N4-(4-chloro-3-methoxyphenyl)-5-fluoro-2,4-pyrimidinediamine]
pIC50 [1]: 7.39 | pIC50 [2]: 5.86

COc1ccc(Nc2nc(Nc3cc(C)c(Cl)c(S(N)(=O)=O)c3)ncc2F)cc1Cl [VI-17, N2-(3-Aminosulfonyl-4-chloro-5-methylphenyl)-N4-(3-chloro-4-methoxyphenyl)-5-fluoro-2,4-pyrimidinediamine]
pIC50 [1]: 7.36 | pIC50 [2]: 6.34

Cc1ccc(Nc2ncc(F)c(Nc3ccc4c(c3)NC(=O)CS4)n2)cc1S(N)(=O)=O [VII-44, N2-(3-Aminosulphonyl-4-methyl-phenyl)-5-fluoro-N4-(3-oxo-4H-benzo[1,4]thiazin-6-yl)-2,4-pyrimidinediamine]
pIC50 [1]: 7.48 | pIC50 [2]: 5.91

NS(=O)(=O)c1cccc(Nc2ncc(F)c(Nc3ccc(Cc4ccncc4)cc3)n2)c1 [III-128, N2-(3-Aminosulfonylphenyl)-5-fluoro-N4-[4-(4-pyridylmethyl)phenyl]-2,4-pyrimidinediamine p-Toluenesulfonic Acid Salt]
pIC50 [1]: 6.84 | pIC50 [2]: 5.84

Cc1ccc(Nc2ncc(F)c(Nc3ccc(C(F)(F)F)cc3)n2)cc1S(N)(=O)=O [VI-50, N2-(3-Aminosulfonyl-4-methylphenyl)-5-fluoro-N4-(4-trifluoromethylphenyl)-2,4-pyrimidinediamine]
pIC50 [1]: 6.66 | pIC50 [2]: 5.73

C#CCOc1ccc(Nc2nc(Nc3ccc(Cl)c(S(N)(=O)=O)c3)ncc2F)cc1 [VI-55, N2-(3-Aminosulfonyl-4-chlorophenyl)-5-fluoro-N4-[4-(prop-2-ynyloxy)phenyl]-2,4-pyrimidinediamine]
pIC50 [1]: 6.91 | pIC50 [2]: 5.86

C#CCOc1ccc(Nc2nc(Nc3ccc(N4CCN(C)CC4)c(S(N)(=O)=O)c3)ncc2F)cc1 [VI-70, N2-[3-Aminosulfonyl-4-(1-methylpiperazin-4-yl)phenyl]-5-fluoro-N4-[4-(prop-2-ynyloxy)phenyl]-2,4-pyrimidinediamine]
pIC50 [1]: 7.15 | pIC50 [2]: 6.18

COc1cc(Nc2nc(Nc3ccc(Cl)c(S(N)(=O)=O)c3)ncc2F)ccc1Cl [VI-11, N2-(3-Aminosulfonyl-4-chlorophenyl)-N4-(4-chloro-3-methoxyphenyl)-5-fluoro-2,4-pyrimidinediamine]
pIC50 [1]: 6.59 | pIC50 [2]: 5.15

NS(=O)(=O)c1cccc(Nc2ncc(F)c(Nc3ccc(-c4cnco4)cc3)n2)c1 [IV-5, N2-(3-Aminosulfonylphenyl)-5-fluoro-N4-[4-(1,3-oxazol-5-yl)phenyl]-2,4-pyrimidinediamine]
pIC50 [1]: 7.01 | pIC50 [2]: 6.30

Cc1ccc(Nc2ncc(F)c(Nc3cccc4c(CC#N)c[nH]c34)n2)cc1S(N)(=O)=O [IX-16, N2-(3-Aminosulfonyl-4-methylphenyl)-N4-(3-cyanomethyl-1H-indol-7-yl)-5-fluoro-2,4-pyrimidinediamine]
pIC50 [1]: 6.68 | pIC50 [2]: 5.60

Cc1ccc(Nc2ncc(F)c(Nc3ccc4[nH]cc(CC#N)c4c3)n2)cc1S(N)(=O)=O [IX-14, N2-(3-Aminosulfonyl-4-methylphenyl)-N4-(3-cyanomethyl-1H-indol-5-yl)-5-fluoro-2,4-pyrimidinediamine]
pIC50 [1]: 7.24 | pIC50 [2]: 5.96

N#CCN1C(=O)CSc2ccc(Nc3nc(Nc4ccc(S(N)(=O)=O)cc4)ncc3F)cc21 [Compound V-11, N2-(4-Aminosulphonylphenyl)-5-fluoro-N4-(3-oxo-4-cyanomethyl-benzo[1,4]thiazin-6-yl)-2,4-pyrimidinediamine]
pIC50 [1]: 7.16 | pIC50 [2]: 5.85

Cc1ccc(Nc2ncc(F)c(Nc3ccc(C(=O)N4CCSCC4)cc3)n2)cc1S(N)(=O)=O [IX-35, N2-(3-Aminosulfonyl-4-methylphenyl)-5-fluoro-N4-[4-(4-thiomorpholinyl)carbonylphenyl]-2,4-pyrimidinediamine]
pIC50 [1]: 6.34 | pIC50 [2]: 5.68

Cc1ccc(Nc2ncc(C)c(Nc3ccc4c(c3)NC(=O)CO4)n2)cc1S(N)(=O)=O [VII-30, N2-(3-Aminosulphonyl-4-methylphenyl)-5-methyl-N4-(3-oxo-benz[1,4]oxazin-6-yl)-2,4-pyrimidinediamine]
pIC50 [1]: 7.45 | pIC50 [2]: 6.15

C=Cc1ccc(Nc2nc(Nc3ccc(C)c(S(N)(=O)=O)c3)ncc2F)cc1 [VI-54, N2-(3-Aminosulfonyl-4-methylphenyl)-5-fluoro-N4-(4-vinylphenyl)-2,4-pyrimidinediamine]
pIC50 [1]: 6.83 | pIC50 [2]: 5.79

CC#CCOc1ccc(Nc2nc(Nc3ccc(C)c(S(N)(=O)=O)c3)ncc2F)cc1 [VI-61, N2-(3-Aminosulfonyl-4-methylphenyl)-N4-[4-(but-2-ynyloxy)phenyl]-5-fluoro-2,4-pyrimidinediamine]
pIC50 [1]: 7.00 | pIC50 [2]: 6.44

Cc1cnc(Nc2ccc(S(N)(=O)=O)cc2)nc1Nc1ccc2c(c1)NC(=O)CO2 [VII-31, N2-(4-Aminosulphonylphenyl)-5-methyl-N4-(3-oxo-benz[1,4]oxazin-6-yl)-2,4-pyrimidinediamine]
pIC50 [1]: 6.90 | pIC50 [2]: 5.14

N#CCc1c[nH]c2ccc(Nc3nc(Nc4cccc(S(N)(=O)=O)c4)ncc3F)cc12 [IX-13, N2-(3-Aminosulfonylphenyl)-N4-(3-cyanomethyl-1H-indol-5-yl)-5-fluoro-2,4-pyrimidinediamine]
pIC50 [1]: 6.86 | pIC50 [2]: 5.73

NS(=O)(=O)c1cccc(Nc2ncc(F)c(Nc3ccc(CCCO)cc3)n2)c1 [VI-86, N2-(3-Aminosulfonylphenyl)-5-fluoro-N4-[4-(3-hydroxypropyl)phenyl]-2,4-pyrimidinediamine]
pIC50 [1]: 6.82 | pIC50 [2]: 6.31

NS(=O)(=O)c1cccc(Nc2ncc(F)c(Nc3ccc(C(F)(F)F)cc3)n2)c1 [VI-51, N2-(3-Aminosulfonylphenyl)-5-fluoro-N4-(4-trifluoromethylphenyl)-2,4-pyrimidinediamine]
pIC50 [1]: 6.82 | pIC50 [2]: 5.67

NC(=O)c1cc2cc(Nc3nc(Nc4cccc(S(N)(=O)=O)c4)ncc3F)ccc2o1 [VII-54, N2-(3-Aminosulfonylphenyl)-N4-(2-aminocarbonylbenzofurane-5-yl)-5-fluoro-2,4-pyrimidinediamine]
pIC50 [1]: 6.53 | pIC50 [2]: 4.19

C#CCOc1ccc(Nc2nc(Nc3ccc(C)c(S(N)(=O)=O)c3)ncc2F)cc1 [VI-53, N2-(3-Aminosulfonyl-4-methylphenyl)-5-fluoro-N4-[4-(prop-2-ynyloxy)phenyl]-2,4-pyrimidinediamine]
pIC50 [1]: 7.25 | pIC50 [2]: 6.25
